Assays:
HepG2 cells [1] = experiment: In vitro cytotoxic activity, MTT assay; assay type: cell-based, human; conditions: 24 h treatment, read-out: IC50, compound concentration required to inhibit cell growth by 50%
Description: The obtained 1,8-naphthalimide–carborane conjugates were investigated for their in vitro antitumor activity by examining their cytotoxic effects using the MTT tetrazolium dye assay against the human cancer cell line HepG2 established from hepatocellular carcinoma. IC50 refers to the drug concentration (µM) required to inhibit cell growth by 50%.
The cytotoxic properties of the synthesized compounds were evaluated using the human hepatocellular carcinoma cell line HepG2 established from hepatocellular carcinoma. The HepG2 cell line was purchased from ECACC (Salisbury, UK). Cells were grown in EMEM medium (Corning®) supplemented with 10% heat-inactivated fetal bovine serum (FBS) (Corning®) and antibiotics (Corning®), at 37 °C in a 5% CO2 atmosphere. Upon reaching 80–90% confluency, cells were detached with the trypsin (Corning®) and transferred into 96-well microplates at a density of 12 × 10^3. After overnight incubation at 37 °C in a humidified atmosphere containing 5% CO2, the cells were treated for the next 24 h with compounds. The stock solution of each compound was prepared in DMSO at 10 mM. The cytotoxicity was evaluated by the MTT assay. […] Subsequently, the medium was aspirated and replaced with 3-(4,5-dimethylthiazol-2-yl)-2,5-diphenyltetrazolium bromide (MTT) dye solution (50 µL, 0.5 mg/mL). After 3 h incubation, the resulting MTT formazan crystals were dissolved in DMSO (100 µL). To ensure the complete dissolution of formazan, the plates were shaken on an orbital microplate shaker at 1000 rpm for 15 min (Thermoshaker NeoLab 7–0055, Bionovo, Legnica, Poland). The optical density of each well was then measured on a VICTOR Nivo multimode plate reader at a wavelength of 570 nm. Each experiment consisted of 6 replications of each concentration, and each experiment was repeated three times independently. The results were calculated as a percentage of control group viability. The IC50 values were determined using a non-linear regression from the plot of % viability against log dose of compounds by using GraphPad Prism 6.0 software (GraphPad, San Diego, CA, USA).

calf thymus DNA (ct-DNA) = experiment: Melting temperature (Tm) measurements of ct-DNA, thermal denaturation; assay type: binding; conditions: r = [compound]/[ct-DNA] = 0.3; pH 7.0, 20 mM cacodylate buffer; Tm of ct-DNA alone 74 °C
Description: The melting temperature (Tm) of DNA is defined as the temperature at which 50% of the DNA is in form of single strands forming randomly coiled structures. DNA melting is measured by the absorbance of UV light (260 nm) by the DNA solution, where the amount of UV light absorbed is proportional to the fraction of non-bonded base pairs. The majority of DNA-binding small molecules known thus far stabilize duplex DNA against heat denaturation. A high, drug-induced increase in the Tm of DNA is generally viewed as an excellent criterion to select DNA ligands and is a common feature of several anticancer drugs such as intercalators (a significant increase in Tm = 3–8 °C is observed for strong intercalation) and alkylators. The reverse situation (destabilization of DNA to facilitate its denaturation) may be an attractive option to identify therapeutic agents acting on the DNA structure.
Our study conducted Tm measurement to estimate the impact of 1,8-naphthalimides bearing the carborane cluster on DNA stabilization (Table 1, Figures S249–S253, ESI).
The measurements were performed by adding aliquots of DMSO stock solution of the tested compounds to the buffer solution (pH 7.0, 20 mM, cacodylate buffer, DMSO content of the final solution = 0.24–0.36%). The Tm curves were collected at r = 0.3 (r = [compound]/[ct-DNA]) to assure the dominant binding mode. Thermal melting curves were determined by following the absorption change at 260 nm as a function of temperature by using a GBC Cintra10 UV–vis spectrometer (Dandenong, Australia) equipped with a GBC Thermocell Peltier Power Supply (Dandenong, Australia) using a 1 cm path length cell. The absorbance of the samples was monitored at 260 nm from 30 to 90 °C (95 °C for compounds 54–61) with a heating rate of 1 °C/min. Tm values are the midpoints or the transition curves determined from the maximum of the first derivative. The ΔTm values were calculated by subtracting the Tm of the free nucleic acid from the Tm of the sample. Every Tm value reported in this study was average at least three measurements. The error in Tm was 0.5 °C.

HepG2 cells [2] = experiment: Cell migration inhibition assay (xCELLigence, CIM plates); assay type: cell-based, human; conditions: 24 h pre-incubation at one-fourth of IC50
Description: By using the xCELLigence platform, we evaluated migration potential of HepG2 cells after the administration of compounds. We incubated the cells with compounds 54–61 at the concentration corresponding to one-fourth of the IC50 value for 24 h before the analysis, and the cells were then seeded on a CIM plate. Impedance-based cell index (CI) of HepG2 cells was measured every 30 min for 72 h. […] The most significant changes were observed within the first 24 h (Figure 3A). Thus, to obtain more insight into the altered migration profile caused by the analyzed compounds, we additionally calculated the slope representing the rate of change of the cell index within the first 24 h.
Transwell cell migration experiments were performed using xCELLigence RTCA Analyzer (Roche) in Cell Invasion and Migration (CIM) plates (ACEA Biosciences, San Diego, CA, USA). Each well consisted of an upper and a lower chamber separated by a microporous polyethylene terephthalate (PET) membrane containing randomly distributed 8 μm-pores. Prior to the migration assay, HepG2 cells (15 × 10^3) were seeded onto 48-well plates containing the growth medium (EMEM) and incubated until 70–80% confluency and incubated at 37 °C in a humidified atmosphere containing 5% CO2. Subsequently, the cells were treated for 24 h with the tested compounds at the final concentration corresponding to the one-fourth of IC50 value. Next, 160 μL of complete growth medium (supplemented with 10% FBS) was added to the lower chamber and 50 μL of serum-free growth medium to the upper chambers of CIM plate. The plates were incubated at 37 °C and 5% CO2 saturation for 1 h prior to insertion into the xCELLigence platform. To initiate a transwell migration experiment, cells were detached, resuspended in the serum-free growth medium, and seeded in the upper chamber at a density of 1 × 10^4 cells in 100 μL per well, previously treated with the compounds. The impedance of the microelectrode array was monitored and converted to the cell index (CI). Normalization values were recorded using the RTCA Software 1.2.1. […]
Figure 3 Real-time migration potential of HepG2 cells after 24 h administration of compounds 54–61. The migration potential of the cells was monitored using the xCELLigence system. HepG2 cells were incubated with the analyzed compounds for 24 h before the analysis at the concentration corresponding to one-fourth of the IC50 value. The impedance (cell index values) was measured every 30 min for the next 72 h. To eliminate the influence of the solvent, DMSO was added to the cells in a volume that corresponded to the highest compound concentration (A). The slope parameter represents the rate of changes in CI values of HepG2 cells within the first 24 h (B). […]

Row | Substance | IC50 (HepG2 cells [1]) | ΔTm ct-DNA (calf thymus DNA (ct-DNA)) | effect on migration potential of HepG2 cells (cell index, slope in first 24 h) (HepG2 cells [2])
1 | N-[2-N-Pyrrolidinyl)ethyl]-4-[(6-(2-(1,2-dicarba-closo-dodecaborane-1-yl)-ethylamino)hexyl)amino]-1,8-naphthalimide [Compound 60] | 30.9 ± 2.66 µM | 7.67 °C | influenced the migratory activity most
2 | N-[2-N-Pyrrolidinyl)ethyl]-4-[(6-(2-(1,7-dicarba-closo-dodecaborane-1-yl)-ethylamino)hexyl)amino]-1,8-naphthalimide [Compound 61] | 4.79 ± 0.06 µM | 12.33 °C | highest impairment
3 | N-[2-(Dimethylamino)ethyl]-4-[(6-(2-(1,2-dicarba-closo-dodecaborane-1-yl)-ethylamino)hexyl)amino]-1,8-naphthalimide [Compound 58] | 3.87 ± 1.03 µM | 11.00 °C | –
4 | N-[2-(Dimethylamino)ethyl]-4-[(6-(2-(1,7-dicarba-closo-dodecaborane-1-yl)-ethylamino)hexyl)amino]-1,8-naphthalimide [Compound 59] | 5.35 ± 1.36 µM | 8.33 °C | –
5 | N-[2-(Pyrrolidin-1-yl)ethyl]-4-[(2-(2-(1,7-dicarba-closo-dodecaborane-1-yl)-ethylamino)ethyl)amino]-1,8-naphthalimide [Compound 57] | 3.12 ± 0.04 µM | 11.00 °C | influenced the migratory activity most
6 | N-[2-(Dimethylamino)ethyl]-4-[(2-(2-(1,2-dicarba-closo-dodecaborane-1-yl)-ethylamino)ethyl)amino]-1,8-naphthalimide [Compound 54] | 5.49 ± 0.38 µM | 7.67 °C | –
7 | N-[2-(Dimethylamino)ethyl]-4-[(2-(2-(1,7-dicarba-closo-dodecaborane-1-yl)-ethylamino)ethyl)amino]-1,8-naphthalimide [Compound 55] | 3.43 ± 0.28 µM | 9.67 °C | –
8 | N-[2-(Pyrrolidin-1-yl)ethyl]-4-[(2-(2-(1,2-dicarba-closo-dodecaborane-1-yl)-ethylamino)ethyl)amino]-1,8-naphthalimide [Compound 56] | 12.1 ± 1.03 µM | 7.67 °C | influenced the migratory activity most
